Test system: Hepatitis B virus
Assay: Antiviral activity against HBV infected in human HepG2-NTCP cells assessed as reduction in HBeAg secretion incubated for 24 hrs followed replacement with fresh medium and measured at day 5 post infection by ELISA
Type: functional, organism-based

SMILES	IC50
C[C@H](CCC(=O)NCCS(=O)(=O)O)[C@H]1CC[C@H]2[C@@H]3[C@@H](O)C[C@@H]4CC(NC(=O)CC(=O)NC5CC[C@@]6(C)[C@@H](C5)C[C@H](O)[C@@H]5[C@@H]6CC[C@]6(C)[C@@H]([C@H](C)CCC(=O)NCCS(=O)(=O)O)CC[C@@H]56)CC[C@]4(C)[C@H]3CC[C@]12C (stereo partly specified)	3.57 µM
C[C@H](CCC(=O)NCCS(=O)(=O)O)[C@H]1CC[C@H]2[C@@H]3[C@@H](O)C[C@@H]4C[C@H](NCCCCCN[C@@H]5CC[C@@]6(C)[C@@H](C5)C[C@H](O)[C@@H]5[C@@H]6CC[C@]6(C)[C@@H]([C@H](C)CCC(=O)NCCS(=O)(=O)O)CC[C@@H]56)CC[C@]4(C)[C@H]3CC[C@]12C	9.65 µM
C[C@@H]1CCC(=O)NCCCCNC(=O)CC[C@@H](C)[C@H]2CC[C@H]3[C@@H]4[C@@H](O)C[C@@H]5CC[C@@H](C[C@]5(C)[C@H]4CC[C@]23C)n2cc(nn2)CO[C@H]2CC[C@H]3C[C@H](O)[C@@H]4[C@H](CC[C@]5(C)[C@@H]1CC[C@@H]45)[C@@]3(C)C2	0.28 µM
C[C@H](CCC(=O)NCCS(=O)(=O)O)[C@H]1CC[C@H]2[C@@H]3[C@@H](O)C[C@@H]4C[C@H](OC(=O)CCCCCC(=O)O[C@@H]5CC[C@@]6(C)[C@@H](C5)C[C@H](O)[C@@H]5[C@@H]6CC[C@]6(C)[C@@H]([C@H](C)CCC(=O)NCCS(=O)(=O)O)CC[C@@H]56)CC[C@]4(C)[C@H]3CC[C@]12C	0.683 µM
C[C@H](CCC(=O)O[C@@H]1CC[C@@]2(C)[C@@H](C1)C[C@H](O)[C@@H]1[C@@H]2CC[C@]2(C)[C@@H]([C@H](C)CCC(=O)O[C@@H]3CC[C@@]4(C)[C@@H](C3)C[C@H](O)[C@@H]3[C@@H]4CC[C@]4(C)[C@@H]([C@H](C)CCC(=O)NCCS(=O)(=O)O)CC[C@@H]34)CC[C@@H]12)[C@H]1CC[C@H]2[C@@H]3[C@@H](O)C[C@@H]4C[C@H](O)CC[C@]4(C)[C@H]3CC[C@]12C	2.65 µM
C[C@H](CCC(=O)NCCS(=O)(=O)O)[C@H]1CC[C@H]2[C@@H]3[C@@H](O)C[C@@H]4CC(C5CC[C@@]6(C)[C@@H](C5)C[C@H](O)[C@@H]5[C@@H]6CC[C@]6(C)[C@@H]([C@H](C)CCC(=O)NCCS(=O)(=O)O)CC[C@@H]56)CC[C@]4(C)[C@H]3CC[C@]12C (stereo partly specified)	> 10 µM
C[C@H](CCC(=O)NCCS(=O)(=O)O)[C@H]1CC[C@H]2[C@@H]3[C@H](O)C[C@@H]4C[C@H](OC(=O)CCCC(=O)O[C@@H]5CC[C@@]6(C)[C@@H](C5)C[C@@H](O)[C@@H]5[C@@H]6CC[C@]6(C)[C@@H]([C@H](C)CCC(=O)NCCS(=O)(=O)O)CC[C@@H]56)CC[C@]4(C)[C@H]3CC[C@]12C	0.187 µM
C[C@H](CCC(=O)O)[C@H]1CC[C@H]2[C@@H]3[C@@H](O)C[C@@H]4C[C@H](NC(=O)CCCC(=O)N[C@@H]5CC[C@@]6(C)[C@@H](C5)C[C@H](O)[C@@H]5[C@@H]6CC[C@]6(C)[C@@H]([C@H](C)CCC(=O)NCCS(=O)(=O)O)CC[C@@H]56)CC[C@]4(C)[C@H]3CC[C@]12C	0.093 µM
C[C@@H]1CCC(=O)NCCNC(=O)CC[C@@H](C)[C@H]2CC[C@H]3[C@@H]4[C@@H](O)C[C@@H]5C[C@H](CC[C@]5(C)[C@H]4CC[C@]23C)NC(=O)CN(C)CC(=O)N[C@@H]2CC[C@@]3(C)[C@@H](C2)C[C@H](O)[C@@H]2[C@@H]3CC[C@]3(C)[C@@H]1CC[C@@H]23	1.21 µM
C[C@H](CCCNC(=O)CC[C@@H](C)[C@H]1CC[C@H]2[C@@H]3[C@@H](O)C[C@@H]4C[C@H](O)CC[C@]4(C)[C@H]3CC[C@]12C)[C@H]1CC[C@H]2[C@@H]3[C@@H](O)C[C@@H]4C[C@H](O)CC[C@]4(C)[C@H]3CC[C@]12C	> 10 µM
C[C@H](CCC(=O)O)[C@H]1CC[C@H]2[C@@H]3[C@@H](O)C[C@@H]4C[C@H](OCCCCCO[C@@H]5CC[C@@]6(C)[C@@H](C5)C[C@H](O)[C@@H]5[C@@H]6CC[C@]6(C)[C@@H]([C@H](C)CCC(=O)NCCS(=O)(=O)O)CC[C@@H]56)CC[C@]4(C)[C@H]3CC[C@]12C	0.935 µM
C[C@H](CCC(=O)O)[C@H]1CC[C@H]2[C@@H]3[C@@H](O)C[C@@H]4CC(NC(=O)CCCC(=O)NC5CC[C@@]6(C)[C@@H](C5)C[C@H](O)[C@@H]5[C@@H]6CC[C@]6(C)[C@@H]([C@H](C)CCC(=O)O)CC[C@@H]56)CC[C@]4(C)[C@H]3CC[C@]12C (stereo partly specified)	3.57 µM
C[C@H](CCC(=O)NCCS(=O)(=O)O)[C@H]1CC[C@H]2[C@@H]3CC[C@@H]4C[C@H](OC(=O)CCCC(=O)O[C@@H]5CC[C@@]6(C)[C@H](CC[C@@H]7[C@@H]6CC[C@]6(C)[C@@H]([C@H](C)CCC(=O)NCCS(=O)(=O)O)CC[C@@H]76)C5)CC[C@]4(C)[C@H]3CC[C@]12C	3.24 µM
C[C@H](CCC(=O)NCCS(=O)(=O)O)[C@H]1CC[C@H]2[C@@H]3[C@@H](O)C[C@@H]4C/C(=C5\CC[C@@]6(C)[C@@H](C5)C[C@H](O)[C@@H]5[C@@H]6CC[C@]6(C)[C@@H]([C@H](C)CCC(=O)NCCS(=O)(=O)O)CC[C@@H]56)CC[C@]4(C)[C@H]3CC[C@]12C	> 10 µM
C[C@H](CCC(=O)NCCS(=O)(=O)O)[C@H]1CC[C@H]2[C@@H]3[C@@H](O)C[C@@H]4C[C@H](OCC#CC#CCO[C@@H]5CC[C@@]6(C)[C@@H](C5)C[C@H](O)[C@@H]5[C@@H]6CC[C@]6(C)[C@@H]([C@H](C)CCC(=O)NCCS(=O)(=O)O)CC[C@@H]56)CC[C@]4(C)[C@H]3CC[C@]12C	1.87 µM
C[C@@H]1CCC(=O)NCCCCCCNC(=O)CC[C@@H](C)[C@H]2CC[C@H]3[C@@H]4[C@@H](O)C[C@@H]5CC[C@@H](C[C@]5(C)[C@H]4CC[C@]23C)n2cc(nn2)CO[C@H]2CC[C@H]3C[C@H](O)[C@@H]4[C@H](CC[C@]5(C)[C@@H]1CC[C@@H]45)[C@@]3(C)C2	0.21 µM
C[C@H](CCC(=O)NCCS(=O)(=O)O)[C@H]1CC[C@H]2[C@@H]3[C@@H](O)C[C@@H]4CC(O)(C5(O)CC[C@@]6(C)[C@H](C[C@H](O)[C@@H]7[C@@H]6CC[C@]6(C)[C@@H]([C@H](C)CCC(=O)NCCS(=O)(=O)O)CC[C@@H]76)C5)CC[C@]4(C)[C@H]3CC[C@]12C (stereo partly specified)	> 10 µM
C[C@@H]1CCCOC(=O)CC[C@@H](C)[C@H]2CC[C@H]3[C@@H]4[C@@H](O)C[C@@H]5C[C@@H](CC[C@]5(C)[C@H]4CC[C@]23C)NC(=O)CCCC(=O)N[C@@H]2CC[C@@]3(C)[C@@H](C2)C[C@H](O)[C@@H]2[C@@H]3CC[C@]3(C)[C@@H]1CC[C@@H]23	0.525 µM
C[C@H](CCCOC(=O)CC[C@@H](C)[C@H]1CC[C@H]2[C@@H]3[C@@H](O)C[C@@H]4C[C@H](O)CC[C@]4(C)[C@H]3CC[C@]12C)[C@H]1CC[C@H]2[C@@H]3[C@@H](O)C[C@@H]4C[C@H](O)CC[C@]4(C)[C@H]3CC[C@]12C	2.7 µM
C[C@H](CCc1cn([C@@H]2CC[C@@]3(C)[C@@H](C2)C[C@H](O)[C@@H]2[C@@H]3CC[C@]3(C)[C@@H]([C@H](C)CCC(=O)O)CC[C@@H]23)nn1)[C@H]1CC[C@H]2[C@@H]3[C@@H](O)C[C@@H]4C[C@H](O)CC[C@]4(C)[C@H]3CC[C@]12C	0.025 µM
C[C@@H]1CCC(=O)NCCCNC(=O)CC[C@@H](C)[C@H]2CC[C@H]3[C@@H]4[C@@H](O)C[C@@H]5CC[C@@H](C[C@]5(C)[C@H]4CC[C@]23C)n2cc(nn2)CO[C@H]2CC[C@H]3C[C@H](O)[C@@H]4[C@H](CC[C@]5(C)[C@@H]1CC[C@@H]45)[C@@]3(C)C2	0.178 µM
C[C@H](CCC(=O)NCCS(=O)(=O)O)[C@H]1CC[C@H]2[C@@H]3[C@@H](O)C[C@@H]4CC(NC(=O)CCCC(=O)NC5CC[C@@]6(C)[C@@H](C5)C[C@H](O)[C@@H]5[C@@H]6CC[C@]6(C)[C@@H]([C@H](C)CCC(=O)NCCS(=O)(=O)O)CC[C@@H]56)CC[C@]4(C)[C@H]3CC[C@]12C (stereo partly specified)	0.041 µM
C[C@@H]1CCC(=O)NCCCNC(=O)CC[C@@H](C)[C@H]2CC[C@H]3[C@@H]4[C@@H](O)C[C@@H]5C[C@@H](CC[C@]5(C)[C@H]4CC[C@]23C)NC(=O)CCCC(=O)N[C@@H]2CC[C@@]3(C)[C@@H](C2)C[C@H](O)[C@@H]2[C@@H]3CC[C@]3(C)[C@@H]1CC[C@@H]23	0.564 µM
C[C@@H]1CCC(=O)OCCOC(=O)CC[C@@H](C)[C@H]2CC[C@H]3[C@@H]4[C@@H](O)C[C@@H]5C[C@@H](CC[C@]5(C)[C@H]4CC[C@]23C)NC(=O)CCCC(=O)N[C@@H]2CC[C@@]3(C)[C@@H](C2)C[C@H](O)[C@@H]2[C@@H]3CC[C@]3(C)[C@@H]1CC[C@@H]23	0.185 µM
C[C@H](CCC(=O)NCCS(=O)(=O)O)[C@H]1CC[C@H]2[C@@H]3[C@@H](O)C[C@@H]4CC(NCCNC5CC[C@@]6(C)[C@@H](C5)C[C@H](O)[C@@H]5[C@@H]6CC[C@]6(C)[C@@H]([C@H](C)CCC(=O)NCCS(=O)(=O)O)CC[C@@H]56)CC[C@]4(C)[C@H]3CC[C@]12C (stereo partly specified)	7.68 µM
C[C@@H]1CCC(=O)NCCCCCNC(=O)CC[C@@H](C)[C@H]2CC[C@H]3[C@@H]4[C@@H](O)C[C@@H]5CC[C@@H](C[C@]5(C)[C@H]4CC[C@]23C)n2cc(nn2)CO[C@H]2CC[C@H]3C[C@H](O)[C@@H]4[C@H](CC[C@]5(C)[C@@H]1CC[C@@H]45)[C@@]3(C)C2	0.465 µM

From ChEMBL document CHEMBL4834431, “Design of Dimeric Bile Acid Derivatives as Potent and Selective Human NTCP Inhibitors” (J Med Chem, 2021)
